Assay results reported in patent publication US20230210757A1, “IMPROVEMENTS IN OR RELATING TO ORGANIC COMPOUNDS” (Givaudan SA, priority 2020, published 2023).

What was measured:
[1] = system: pigmented ageing spots on face; assay: Clinical test, face of Asian volunteers, spectrocolorimeter measurement; format: in vivo, human; details: HEX cream 3% or Phenylethyl resorcinol cream 0.3% twice daily, after 28 and 56 days
Method: (§1) The study was a double-blind, randomized and placebo controlled study. The assessment was based on an inter-subject comparison between the results obtained with cream HEX at 3% (active product), cream Phenylethyl resorcinol at 0.3% and the cream placebo. The measurements were taken in controlled-atmosphere at a temperature of 21±1° C. and a humidity of 50±10%. This study was performed on 72 volunteers (healthy Asian woman aged from 45 to 85 years), having pigmented ageing spots on their faces.
(§2) The study was carried out on 2 groups of 36 volunteers each (72 volunteer in total). A cream formula was applied twice daily on face. Evaluation was carried out before treatment and after 28 and 56 days. Group 1 has applied placebo on one side of the face and HEX at 3% on the other side of the face Group 2 has tested HEX at 3% on one side of the face versus Phenylethyl Resorcinol at 0.3% on the other side of the face.
Skin colorimetric measurement was done with a MINOLTA CM700-d Spectrophotometer® equipped with a 8 mm diameter head. The Spectrophotometer® converts colours perceived by human to a digital code composed of three parameters:
L*: for clarity (from dark to light),
a*: for the green-to-red spectrum,
b*: for the blue-to-yellow spectrum.
a* and b* are chrominance parameters and L* is a luminance parameter. […]

[2] = system: pigmented ageing spots on face; assay: Clinical test, pigmented spots on face of Asian volunteers, VISIA ageing spot analysis; format: in vivo, human; details: cream 0.3% twice daily
Method: as §1
as §2, with “the face. […]” for “the face.”
Under standard light, visible spots can be evaluated, in particular by visualisation of brown or red skin lesions including freckles, acne scars, hyper-pigmentation and vascular lesions. With cross polarized light in combination with Canfield's RBX® Technology brown spots can be evaluated, in particular by analysis of subsurface melanin conditions. […] The results are given in number of lesions, which is a count of lesions detected by the device, regardless of their size or intensity.

[3] = system: pigmented ageing spots on hands; assay: Clinical test, pigmented spots on hands of Caucasian volunteers, Mexameter analysis; format: in vivo, human; details: cream 0.3% twice daily
Method: The study was a double-blind, randomized and placebo controlled study. The assessment was based on an intra-subject comparison between the results obtained with cream HEX at 3% (active product), cream Phenylethyl resorcinol at 0.3% and the cream placebo. The measurements were taken in controlled-atmosphere at a temperature of 21±1° C. and a humidity of 50*10%. This study was performed on 39 volunteers (healthy Caucasian woman aged from 50 to 75 years, mean age: 61.7±5.6 years) having pigmented ageing spots on their hands.
The study was carried out on 2 groups of around 20 volunteers each (39 volunteer in total aged from […]). A cream formula was applied twice daily on hands. Evaluation was carried out before treatment and after 28 and 56 days. Group 1 has applied placebo on one hand and HEX at 3% on the other hand, and group 2 has tested HEX at 3% on one hand versus Phenylethyl Resorcinol at 0.3% on the other hand.
The measurement is based on the absorption principle. The MEXAMETER MX 18 probe emits radiation of three defined wavelengths. A receiver measures the reflection of the light reflected by the skin. The position of the transmitter and receiver ensures that only diffuse light is measured. With a defined amount of emitted light the amount of light absorbed by the skin can be calculated. Melanin is measured by two wavelengths. […]

[4] = system: skin explants (Caucasian, Asian, African); assay: Ex vivo whitening efficacy on skin explants (Fontana Masson staining, expert scoring of basal cells); format: cell-based, human; details: topical daily 14 days, vs untreated, extract 3%, Phenylethyl resorcinol 0.5%, hydroquinone 2%
Method: Skin fragments from 3 Asian, 3 African and 3 Caucasian subjects were cut into 1 cm^2 pieces and washed three times using antibiotics. Subcutaneous fat and lower dermis were mechanically removed under a stereomicroscope using a surgical scalpel. Skin biopsies were placed with the epithelium uppermost at an air/liquid interface on culture inserts (filter pore size 12 μm; Costar, VWR International, Fontenay-sous-Bois, France). These inserts were set on twelve wells plate for 14 days at 37° C. in a humidified incubator with 5% CO2. Medium was added to the wells so that the surface of the medium was levelled with the filter. Organ cultures were conserved with Dulbecco's […] (Invitrogen Corporation, Paisley, UK) containing antibiotic, L-glutamine, bovine pituitary extract, growth factors and fetal calf serum (DAP, Neuf-Brisach, France). […] elongata extract 3% (unpurified extract), Phenylethyl resorcinol 0.5% and hydroquinone 2% (SIGMA H9003) as positive control were topically applied daily during 14 days on the epidermis of the skin fragments, in comparison with untreated skin. […] For testing the depigmentation product, the melanin pigment present in the melanocytes and in the contiguous keratinocytes of the basal cell layer of the epidermis from treated skin in comparison with untreated skin is evaluated. Samples were formalin-fixed at day 14 and paraffin-embedded Sections (4 μm) were then stained by Fontana Masson silver method for melanin (see example 4iii). A quantitative numeration of cells containing melanin pigments was made under an optical microscope at ×40 magnification on about 300 basal cells of the epidermis, Two types of cells were counted: • score 1: unpigmented cells or cells presenting rare melanin pigments isolated in the cytoplasm • score 3: cells presenting important melanin pigment in all over the cytoplasm Epidermal melanin content was calculated as the percentage of the epidermal cells in each scoring.

[5] = system: hyperpigmentation spots on face; assay: Clinical test, hyperpigmented spots on face of African volunteers, Mexameter analysis; format: in vivo, human
Method: The measurement is based on the absorption principle. The MEXAMETER MX 18 probe emits radiation of three defined wavelengths. A receiver measures the reflection of the light reflected by the skin. The position of the transmitter and receiver ensures that only diffuse light is measured. With a defined amount of emitted light the amount of light absorbed by the skin can be calculated. Melanin is measured by two wavelengths. The wavelengths were chosen according to the different absorption peaks of the melanin pigments. For the measurement of erythema (redness of skin), two different wavelengths are used to measure the absorption capacity of the epidermis. One of them corresponds to the absorption spectrum of haemoglobin. The other wavelength was chosen in order to have other pigments influencing the colour of the skin.
The study was a double-blind, randomized and placebo controlled study. The assessment was based on an inter-subject comparison between the results obtained with cream HEX at 3% (active product), cream Phenylethyl resorcinol at 0.3% and the cream placebo. The measurements were taken in controlled-atmosphere at a temperature of 20° C. and a humidity of 40%. This study was performed on 70 volunteers (aged from 19 to 57 years, having hyperpigmentation spots on their faces.
The study was carried out on 3 groups. A cream formula was applied twice daily on full face. Evaluation was carried out before treatment and after 28 and 56 days. Groups 1 and 2, with 25 volunteers each, have applied placebo and HEX at 3%, respectively, and group 3 with 20 volunteers has applied Phenylethyl Resorcinol at 0.3%.

Row | Structure (SMILES) | b* parameter on face pigmented spots area [1] | reduction of brown spots compared with HEX [2] | reduction of visible spots compared with HEX at 3% [2] | reduction of skin redness compared with placebo [3] | melanin reduction efficacy compared with HEX at 3% ([3]; 28 and 56 days) | change of percentage of unpigmented cells ([4]; African skin explants) | change of percentage of very pigmented cells ([4]; African skin explants) | change of percentage of unpigmented cells ([4]; Asian skin explants) | change of percentage of very pigmented cells ([4]; Asian skin explants) [%] | change of percentage of unpigmented cells ([4]; Caucasian skin explants) | change of percentage of very pigmented cells ([4]; Caucasian skin explants) | change of melanin content relative to D0 ([5]; HEX cream 3% or Phenylethyl Resorcinol cream 0.3% twice daily, after 56 days) | change of melanin content relative to D0 ([5]; cream 0.3% twice daily, after 28 days) [%] | change of melanin content versus placebo ([5]; cream 0.3%, after 28 days) [%]
1 | CC(c1ccccc1)c1ccc(O)cc1O (centres unmarked) [Phenylethyl resorcinol, phenylethyl resorcinol] | significant reduction of b* parameter | slightly better than HEX | efficacy very close to those obtained with HEX at 3% | same efficacy as what we obtained with the placebo | Same melanin reduction efficacy as with HEX at 3% | +91.7% | −22.7% | +110.7% | −29.2 | +38.8% | −4.2% | not maintained after 56 days | −2.1 | −4.3
2 | Oc1ccc(O)cc1 [Hydroquinone, hydroquinone] |  |  |  |  |  | didn't show any significant results | didn't show any significant results | +54.1% | −25.8 | didn't show any significant impact | didn't show any significant impact |  |  | 
